Legend:
[1] = target: ryanodine receptor of mouse origin (Mus musculus, UniProt E9PZQ0); assay: Ryanodine binding inhibition, crude mammalian ryanodine receptor
Experimental: (2) Preparation of Mammalian Crude Ryanodine Receptor Fraction was Performed as Follows.
Muscles of the hind legs of ICR mouse were finely cut, and 3.0 g thereof was homogenized at 0° C., 1,000 rpm for 3×30 sec using glass homogenizer in 15 ml of buffer B (20 mM Tris-HCl buffer (pH 8.0) containing 4 μg/ml aprotinin and 4 μg/ml leupeptin). The homogenate was transferred into the micro test tube, and the glass homogenizer was also washed with the 7.5 ml of buffer B, and the washed solution was also added to the micro test tube, which was stirred, then centrifuged by using ultracentrifuge cooled at 4° C., 25,000×g for 40 min. 2.4 ml of the buffer B was added to the obtained precipitate and suspended to obtain the crude ryanodine receptor fraction of mouse origin.
(4) Binding Activity of Crude Mammalian Ryanodine Receptor was Assayed aAs Follows.
70 μl of the buffer A, 10 μl of ethanol solution of 0.1 nM ryanodine and 10 μl of 20 nM [9,21-^3H] (N) ryanodine were added into the 96 well microplate (Corning Inc. the U.S.). 10 μl of crude ryanodine receptor fraction of mouse origin was added to initiate the reaction, and shaken at room temperature for 90 min. by using microplate mixer. […] Radioactivity was measured by measuring fluorescence intensity of the filter with using scintillation counter (Wallac Inc. the U.S., MicroBeta™ TriLux).

Caenorhabditis elegans = assay: Anti-nematode activity, 96 well plate; type: in vivo; conditions: at 20 μg/ml, observed after 2 days under microscope
Experimental: (§1) Methanol solution of FKI-1033 substance was added into 96 well plate (Corning Inc., the U.S.), removed off methanol in vacuo, added 250 μl of test medium (lecithin 0.01%, sodium hydrogen carbonate 7.5 mM, potassium chloride 7.5 mM, calcium chloride dihydrate 7.5 mM and magnesium sulfate heptahydrate 7.5 mM) and shaken for 15 min. 50 μl of buffer containing several nauplii of Artemia salina, which were hatched off in the buffer, was added thereto, and about ten nematodes, Caenorhabditis elegans, which were bred on agar medium for growth of nematode, were added thereto.

[2] = system: nauplii of Artemia salina; assay: Anti-arthropod activity, 96 well plate; type: in vivo; conditions: at 20 μg/ml, observed after 2 days under microscope
Experimental: as §1

Solubility in solvent = type: physicochemical
[3] = target: T1, ryanodine receptor of Periplaneta americana origin (Periplaneta americana, UniProt A0ABQ8T696); assay: Ryanodine binding inhibition, crude ryanodine receptor of Periplaneta americana
T1 sequence (A0ABQ8T696 1-1387): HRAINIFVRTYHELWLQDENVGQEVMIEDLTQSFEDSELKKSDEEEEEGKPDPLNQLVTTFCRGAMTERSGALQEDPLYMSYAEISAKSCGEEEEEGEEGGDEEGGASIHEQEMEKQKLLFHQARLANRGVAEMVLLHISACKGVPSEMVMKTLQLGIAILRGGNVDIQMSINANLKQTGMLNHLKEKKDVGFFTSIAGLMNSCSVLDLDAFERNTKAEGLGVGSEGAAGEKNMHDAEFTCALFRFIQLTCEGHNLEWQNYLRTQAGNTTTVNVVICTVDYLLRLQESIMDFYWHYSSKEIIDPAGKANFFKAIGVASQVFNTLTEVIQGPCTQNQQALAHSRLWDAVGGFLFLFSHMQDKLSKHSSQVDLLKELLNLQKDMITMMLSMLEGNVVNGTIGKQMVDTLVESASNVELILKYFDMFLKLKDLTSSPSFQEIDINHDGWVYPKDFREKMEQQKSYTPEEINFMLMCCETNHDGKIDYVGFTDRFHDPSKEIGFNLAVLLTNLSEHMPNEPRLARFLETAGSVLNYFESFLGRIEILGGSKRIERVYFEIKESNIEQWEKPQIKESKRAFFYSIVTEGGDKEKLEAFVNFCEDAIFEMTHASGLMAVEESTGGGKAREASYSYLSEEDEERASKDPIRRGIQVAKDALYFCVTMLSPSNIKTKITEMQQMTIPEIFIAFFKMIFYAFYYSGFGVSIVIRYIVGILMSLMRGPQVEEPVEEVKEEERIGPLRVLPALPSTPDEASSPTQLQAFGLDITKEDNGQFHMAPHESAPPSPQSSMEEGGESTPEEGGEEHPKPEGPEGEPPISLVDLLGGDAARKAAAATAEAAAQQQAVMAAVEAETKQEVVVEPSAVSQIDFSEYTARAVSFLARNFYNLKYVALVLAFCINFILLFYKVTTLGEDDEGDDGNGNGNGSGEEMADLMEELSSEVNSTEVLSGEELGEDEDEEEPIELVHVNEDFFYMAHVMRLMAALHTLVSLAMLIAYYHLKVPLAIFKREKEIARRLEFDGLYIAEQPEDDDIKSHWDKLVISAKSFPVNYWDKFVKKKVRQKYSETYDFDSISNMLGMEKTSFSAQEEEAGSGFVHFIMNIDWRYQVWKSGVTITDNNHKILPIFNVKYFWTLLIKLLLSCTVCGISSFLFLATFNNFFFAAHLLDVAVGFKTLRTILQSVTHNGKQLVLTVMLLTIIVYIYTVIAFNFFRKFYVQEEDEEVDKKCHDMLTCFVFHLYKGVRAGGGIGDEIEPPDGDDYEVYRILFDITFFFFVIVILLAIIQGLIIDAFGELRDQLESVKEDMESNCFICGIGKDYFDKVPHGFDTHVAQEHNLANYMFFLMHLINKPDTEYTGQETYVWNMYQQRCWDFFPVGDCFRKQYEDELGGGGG
Experimental: (1) Preparation of the Crude Ryanodine Receptor Fraction of the Insect was Performed as Follows.
The thorax and legs of ten adult insects of Periplaneta americana were frozen with liquid nitrogen and finely cut, and homogenized three times in 15 ml of 50 mM Tris HCl buffer (pH 7.4) containing 4 μg/ml leupeptin and 3 μg/ml pepstatin by using a knife homogenizer at 0° C., 24,000 rpm for 30 sec. The homogenate was filtered using double layered cotton cloth and the filtrate was centrifuged at 4° C., 3,000 rpm for 20 minutes. The obtained supernatant was centrifuged at 4° C., 30,000 rpm for 30 minutes and the precipitate suspended in 1 ml of 20 mM Tris HCl buffer (pH 8.0) containing 0.3 M sucrose, 500 μM calcium chloride and 1.5 M potassium chloride and homogenized with glass potter to obtain crude ryanodine receptor fraction. The crude ryanodine receptor fraction was used by diluting about 7 times with the buffer A (20 mM Tris-HCl buffer (pH 8.0) containing 4 μg/ml aprotinin, 4 μgμml leupeptin, 0.3 M sucrose and 500 μM calcium chloride) immediately before use. […]
70 μl of the buffer A, 10 μl of ethanol solution of 0.1 nM ryanodine and 10 μl of 20 nM [9,21-^3H] […] Radioactivity was measured by measuring fluorescence intensity of the filter with using scintillation counter (Wallac Inc. the U.S., MicroBeta™ TriLux)

Chain of ryanodine receptor of mouse origin (E9PZQ0 whole entry): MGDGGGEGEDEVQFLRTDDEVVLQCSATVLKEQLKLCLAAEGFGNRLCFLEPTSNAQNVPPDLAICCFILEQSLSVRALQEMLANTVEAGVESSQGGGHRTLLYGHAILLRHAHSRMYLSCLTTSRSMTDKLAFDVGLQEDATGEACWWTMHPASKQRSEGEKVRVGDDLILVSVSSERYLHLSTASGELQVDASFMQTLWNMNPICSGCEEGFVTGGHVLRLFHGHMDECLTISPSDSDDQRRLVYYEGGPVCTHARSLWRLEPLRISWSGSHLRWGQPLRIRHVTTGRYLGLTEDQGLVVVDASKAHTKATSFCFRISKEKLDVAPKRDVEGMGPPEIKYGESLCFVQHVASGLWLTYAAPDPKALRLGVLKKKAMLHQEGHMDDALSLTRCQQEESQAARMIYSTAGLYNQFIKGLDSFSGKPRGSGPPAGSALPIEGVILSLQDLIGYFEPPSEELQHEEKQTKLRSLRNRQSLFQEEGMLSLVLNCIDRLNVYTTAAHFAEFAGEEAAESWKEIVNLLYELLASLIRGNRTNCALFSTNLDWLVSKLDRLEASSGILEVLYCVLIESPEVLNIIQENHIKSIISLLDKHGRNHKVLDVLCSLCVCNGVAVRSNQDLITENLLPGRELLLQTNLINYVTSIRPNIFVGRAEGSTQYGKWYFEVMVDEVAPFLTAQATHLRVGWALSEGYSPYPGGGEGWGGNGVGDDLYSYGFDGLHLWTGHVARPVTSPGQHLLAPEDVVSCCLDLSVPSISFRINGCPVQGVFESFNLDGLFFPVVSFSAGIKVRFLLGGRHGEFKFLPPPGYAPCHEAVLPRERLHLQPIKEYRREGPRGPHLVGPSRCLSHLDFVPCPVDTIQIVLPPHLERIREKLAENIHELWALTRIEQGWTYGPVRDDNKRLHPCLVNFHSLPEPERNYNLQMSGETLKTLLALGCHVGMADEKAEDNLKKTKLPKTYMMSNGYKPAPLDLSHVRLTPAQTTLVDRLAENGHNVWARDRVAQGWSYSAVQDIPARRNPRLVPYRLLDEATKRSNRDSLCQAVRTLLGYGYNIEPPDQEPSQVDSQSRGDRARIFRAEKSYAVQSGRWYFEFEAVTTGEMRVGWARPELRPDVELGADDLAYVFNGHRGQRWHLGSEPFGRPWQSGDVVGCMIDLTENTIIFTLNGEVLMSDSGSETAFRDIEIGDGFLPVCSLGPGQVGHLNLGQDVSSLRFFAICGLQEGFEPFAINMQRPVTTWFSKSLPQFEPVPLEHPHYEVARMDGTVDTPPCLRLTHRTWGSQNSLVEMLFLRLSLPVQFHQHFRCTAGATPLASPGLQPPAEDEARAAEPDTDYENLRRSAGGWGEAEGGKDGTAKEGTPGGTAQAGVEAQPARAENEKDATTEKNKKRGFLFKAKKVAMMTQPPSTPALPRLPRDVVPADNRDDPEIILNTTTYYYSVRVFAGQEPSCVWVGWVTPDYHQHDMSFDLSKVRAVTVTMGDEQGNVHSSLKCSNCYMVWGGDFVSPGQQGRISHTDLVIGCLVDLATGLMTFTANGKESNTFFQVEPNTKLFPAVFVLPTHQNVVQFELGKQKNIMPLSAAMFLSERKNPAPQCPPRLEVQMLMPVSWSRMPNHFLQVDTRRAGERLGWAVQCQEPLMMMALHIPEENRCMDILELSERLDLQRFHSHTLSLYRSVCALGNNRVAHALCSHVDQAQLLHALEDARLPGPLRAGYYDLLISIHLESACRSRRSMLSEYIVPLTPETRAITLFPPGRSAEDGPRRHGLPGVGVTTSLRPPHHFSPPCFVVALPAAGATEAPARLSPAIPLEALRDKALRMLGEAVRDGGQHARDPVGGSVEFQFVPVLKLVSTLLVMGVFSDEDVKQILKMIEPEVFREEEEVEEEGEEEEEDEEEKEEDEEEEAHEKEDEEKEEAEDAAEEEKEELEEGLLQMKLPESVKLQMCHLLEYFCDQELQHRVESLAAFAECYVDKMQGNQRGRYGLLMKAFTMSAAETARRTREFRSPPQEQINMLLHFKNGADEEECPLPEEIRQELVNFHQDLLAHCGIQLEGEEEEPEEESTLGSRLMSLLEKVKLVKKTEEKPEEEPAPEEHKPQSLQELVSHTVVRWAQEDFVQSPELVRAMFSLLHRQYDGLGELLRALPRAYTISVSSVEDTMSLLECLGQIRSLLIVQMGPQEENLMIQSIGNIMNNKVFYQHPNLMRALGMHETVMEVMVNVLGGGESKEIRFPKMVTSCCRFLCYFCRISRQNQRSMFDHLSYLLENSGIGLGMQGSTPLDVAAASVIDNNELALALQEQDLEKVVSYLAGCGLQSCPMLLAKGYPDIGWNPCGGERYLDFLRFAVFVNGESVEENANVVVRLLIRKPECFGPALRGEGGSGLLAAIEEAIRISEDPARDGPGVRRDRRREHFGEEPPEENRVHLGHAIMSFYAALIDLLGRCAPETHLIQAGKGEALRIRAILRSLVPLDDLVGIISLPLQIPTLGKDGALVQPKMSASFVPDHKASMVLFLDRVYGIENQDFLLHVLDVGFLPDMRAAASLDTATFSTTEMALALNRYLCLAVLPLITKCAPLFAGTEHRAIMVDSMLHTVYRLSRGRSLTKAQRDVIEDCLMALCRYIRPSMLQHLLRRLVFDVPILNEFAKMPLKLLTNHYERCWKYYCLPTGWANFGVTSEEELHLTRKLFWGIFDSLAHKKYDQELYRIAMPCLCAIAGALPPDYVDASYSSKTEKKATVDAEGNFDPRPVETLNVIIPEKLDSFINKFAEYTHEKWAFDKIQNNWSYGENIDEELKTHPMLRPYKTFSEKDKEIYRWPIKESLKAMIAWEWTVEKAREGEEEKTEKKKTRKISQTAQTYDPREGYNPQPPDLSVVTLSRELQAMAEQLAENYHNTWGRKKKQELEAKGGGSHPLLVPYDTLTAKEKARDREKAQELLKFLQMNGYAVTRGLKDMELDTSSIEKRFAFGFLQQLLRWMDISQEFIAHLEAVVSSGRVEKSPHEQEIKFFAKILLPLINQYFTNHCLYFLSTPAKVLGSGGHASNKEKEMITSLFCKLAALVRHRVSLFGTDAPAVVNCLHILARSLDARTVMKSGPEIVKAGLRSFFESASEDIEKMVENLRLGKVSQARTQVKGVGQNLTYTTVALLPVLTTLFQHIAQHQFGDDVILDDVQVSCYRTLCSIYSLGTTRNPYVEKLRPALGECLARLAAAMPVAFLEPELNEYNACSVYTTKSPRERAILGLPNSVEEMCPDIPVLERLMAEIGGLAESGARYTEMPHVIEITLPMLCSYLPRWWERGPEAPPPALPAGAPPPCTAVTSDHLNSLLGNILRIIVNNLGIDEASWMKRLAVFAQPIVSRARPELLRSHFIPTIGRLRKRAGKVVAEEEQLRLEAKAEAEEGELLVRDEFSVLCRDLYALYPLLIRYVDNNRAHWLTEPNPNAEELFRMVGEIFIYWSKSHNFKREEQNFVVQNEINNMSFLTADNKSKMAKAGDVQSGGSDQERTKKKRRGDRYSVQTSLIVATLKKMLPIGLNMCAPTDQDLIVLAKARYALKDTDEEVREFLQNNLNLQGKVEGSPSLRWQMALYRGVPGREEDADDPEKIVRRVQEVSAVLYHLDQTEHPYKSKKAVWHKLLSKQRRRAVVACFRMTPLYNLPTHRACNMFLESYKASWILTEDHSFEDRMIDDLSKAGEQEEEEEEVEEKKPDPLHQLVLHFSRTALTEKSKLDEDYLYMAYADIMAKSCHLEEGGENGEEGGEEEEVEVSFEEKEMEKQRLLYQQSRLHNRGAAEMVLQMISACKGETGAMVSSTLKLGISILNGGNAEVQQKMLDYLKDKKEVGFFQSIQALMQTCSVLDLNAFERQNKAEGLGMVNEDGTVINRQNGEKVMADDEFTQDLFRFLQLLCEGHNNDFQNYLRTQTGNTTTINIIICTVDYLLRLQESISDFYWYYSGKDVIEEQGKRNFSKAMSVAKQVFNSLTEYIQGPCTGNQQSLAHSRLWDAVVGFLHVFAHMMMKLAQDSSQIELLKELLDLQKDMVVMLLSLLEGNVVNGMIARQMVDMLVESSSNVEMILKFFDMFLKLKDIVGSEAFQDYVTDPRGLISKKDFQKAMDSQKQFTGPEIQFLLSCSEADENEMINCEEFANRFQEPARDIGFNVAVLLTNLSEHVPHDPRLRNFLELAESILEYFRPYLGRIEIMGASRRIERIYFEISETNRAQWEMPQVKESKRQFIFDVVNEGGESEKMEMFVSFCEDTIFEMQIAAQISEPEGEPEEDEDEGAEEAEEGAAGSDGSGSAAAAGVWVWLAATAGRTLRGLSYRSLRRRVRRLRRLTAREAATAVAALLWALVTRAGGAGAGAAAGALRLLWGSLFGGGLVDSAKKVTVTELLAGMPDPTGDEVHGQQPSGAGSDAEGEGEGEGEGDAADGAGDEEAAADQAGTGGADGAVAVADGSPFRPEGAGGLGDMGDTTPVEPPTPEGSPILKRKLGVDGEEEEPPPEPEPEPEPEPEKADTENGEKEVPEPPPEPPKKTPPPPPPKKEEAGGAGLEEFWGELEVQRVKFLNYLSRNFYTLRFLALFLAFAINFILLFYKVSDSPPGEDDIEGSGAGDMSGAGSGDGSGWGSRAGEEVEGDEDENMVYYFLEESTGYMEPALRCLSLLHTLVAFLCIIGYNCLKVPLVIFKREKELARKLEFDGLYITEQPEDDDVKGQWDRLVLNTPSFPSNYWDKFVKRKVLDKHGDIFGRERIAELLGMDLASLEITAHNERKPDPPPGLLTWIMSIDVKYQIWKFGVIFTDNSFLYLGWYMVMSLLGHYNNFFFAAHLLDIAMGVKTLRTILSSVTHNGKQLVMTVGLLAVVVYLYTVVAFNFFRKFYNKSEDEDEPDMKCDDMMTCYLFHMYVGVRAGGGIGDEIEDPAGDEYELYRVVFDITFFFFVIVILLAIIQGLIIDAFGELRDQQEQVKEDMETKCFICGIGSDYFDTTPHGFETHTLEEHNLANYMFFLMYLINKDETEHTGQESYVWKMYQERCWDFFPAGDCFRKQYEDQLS

CCCCCC1OC(=O)C(C)N(C)C(=O)C(CCCCC)OC(=O)C(C)N(C)C(=O)C(CCCCC)OC(=O)C(C)N(C)C(=O)C(CCCCC)OC(=O)C(C)N(C)C1=O (stereo not shown) [FKI-1033 substance]
IC50 [1]: 53.9 µM
growth inhibition of the nematodes (Caenorhabditis elegans) (Caenorhabditis elegans): inhibited growth
growth inhibition of the arthropods (Artemia salina) [2]: inhibited growth
Solubility in solvent (Solubility in solvent; methanol, ethanol, ethyl acetate and chloroform): Soluble
Solubility in solvent (Solubility in solvent; water and n-hexane): Hardly soluble
potency of ryanodine binding inhibition against the insect ryanodine receptor versus the mammalian ryanodine receptor ([3]; insect (Periplaneta americana) vs mammalian (mouse) receptor): more than ten times potent
IC50 ([3]; read-out: ryanodine binding inhibition activity, IC50, crude ryanodine receptor fraction of Periplaneta americana, [9,21-3H](N) ryanodine, room temperature 90 min): 4.2 µM

Reference: patent US7541336B2 (priority 2002, dated 2009)
